According to patent US20250353864A1, “INDAZOLE CONTAINING MACROCYCLES AND THEIR USE” (BLOSSOMHILL THERAPEUTICS, INC., priority 2022, published 2025):

How the values were obtained:
Format in all cases: biochemical
[1] = target: EGFR WT (Homo sapiens (Human), UniProt P00533); assay: HotSpot radiometric kinase assay (Reaction Biology), EGFR WT; conditions: 10 μM ATP
In short: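 IC50 values derive from curve fits of 33P incorporation measured by P81 filter binding. ATP was 10 μM final; incubation lasted 120 min at room temperature after ~20 min compound preincubation.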

[2] = target: EGFR (D770_N771insNPG) (Homo sapiens (Human), UniProt P00533, INS770NPG); assay: HotSpot radiometric kinase assay, EGFR (D770_N771insNPG); conditions: 10 μM ATP, read-out: EGFR (Δ770_N771insNPG) IC50
In short: (§1)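 Enzyme and substrate pairs were exposed to inhibitor for roughly 20 min before radiolabelled ATP (10 μM final) was introduced; the reaction proceeded 120 min at ambient temperature in pH 7.5 buffer with 1% DMSO, and phosphorylated product was captured on P81 filters for IC50 determination.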

[3] = target: EGFR Δ746-750 mutant (Homo sapiens (Human), UniProt P00533, DEL746-750); assay: HotSpot radiometric kinase assay, EGFR Δ746-750 mutant; conditions: 10 μM ATP
In short: as §1

[4] = target: EGFR Δ746-750/C797S mutant (Homo sapiens (Human), UniProt P00533, C797S/DEL746-750); assay: HotSpot radiometric kinase assay, EGFR Δ746-750/C797S mutant; conditions: 10 μM ATP
In short: as §1

[5] = target: EGFR L858R mutant (Homo sapiens (Human), UniProt P00533, L858R); assay: HotSpot radiometric kinase assay, EGFR L858R mutant; conditions: 10 μM ATP
In short: as §1

[6] = target: EGFR L858R/T790M mutant (Homo sapiens (Human), UniProt P00533, L858R/T790M); assay: HotSpot radiometric kinase assay, EGFR L858R/T790M mutant; conditions: 10 μM ATP
In short: as §1

[7] = target: EGFR L858R/T790M/C797S mutant (Homo sapiens (Human), UniProt P00533, C797S/L858R/T790M); assay: HotSpot radiometric kinase assay, EGFR L858R/T790M/C797S mutant; conditions: 10 μM ATP
In short: as §1

Chain of EGFR L858R/T790M/C797S mutant (P00533 25-1210 T790M/C797S/L858R): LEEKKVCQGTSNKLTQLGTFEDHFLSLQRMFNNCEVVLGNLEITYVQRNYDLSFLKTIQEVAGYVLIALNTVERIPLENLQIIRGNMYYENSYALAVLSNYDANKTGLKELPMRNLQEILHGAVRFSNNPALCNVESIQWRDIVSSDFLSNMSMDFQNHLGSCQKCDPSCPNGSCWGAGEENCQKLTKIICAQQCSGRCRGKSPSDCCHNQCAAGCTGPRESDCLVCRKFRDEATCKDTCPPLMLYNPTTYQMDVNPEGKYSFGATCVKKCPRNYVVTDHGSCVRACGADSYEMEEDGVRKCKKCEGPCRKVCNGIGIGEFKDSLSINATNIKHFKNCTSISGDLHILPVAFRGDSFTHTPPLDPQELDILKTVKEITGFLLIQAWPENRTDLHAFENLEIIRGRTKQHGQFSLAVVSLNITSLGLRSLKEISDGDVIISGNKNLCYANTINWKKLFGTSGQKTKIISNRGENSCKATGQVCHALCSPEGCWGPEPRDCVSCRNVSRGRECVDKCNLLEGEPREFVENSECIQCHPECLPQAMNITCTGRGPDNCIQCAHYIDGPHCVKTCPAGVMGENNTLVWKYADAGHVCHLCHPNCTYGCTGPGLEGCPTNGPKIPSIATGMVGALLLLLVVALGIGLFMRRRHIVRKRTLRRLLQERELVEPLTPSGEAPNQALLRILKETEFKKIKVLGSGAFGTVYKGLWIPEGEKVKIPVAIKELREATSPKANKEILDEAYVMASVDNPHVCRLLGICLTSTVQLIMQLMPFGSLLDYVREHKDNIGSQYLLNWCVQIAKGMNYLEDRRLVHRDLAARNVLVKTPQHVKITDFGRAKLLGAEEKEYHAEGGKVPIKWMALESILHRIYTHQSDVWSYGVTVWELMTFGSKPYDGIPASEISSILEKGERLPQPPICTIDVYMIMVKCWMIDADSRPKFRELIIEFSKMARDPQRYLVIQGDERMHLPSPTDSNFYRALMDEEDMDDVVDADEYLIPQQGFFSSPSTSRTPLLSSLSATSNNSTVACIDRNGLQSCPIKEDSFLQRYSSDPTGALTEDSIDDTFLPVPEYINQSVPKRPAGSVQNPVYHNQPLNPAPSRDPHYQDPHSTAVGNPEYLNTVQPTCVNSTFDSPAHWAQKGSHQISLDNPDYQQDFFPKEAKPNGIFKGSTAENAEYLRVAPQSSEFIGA
Chain of EGFR L858R/T790M mutant (P00533 25-1210 T790M/L858R): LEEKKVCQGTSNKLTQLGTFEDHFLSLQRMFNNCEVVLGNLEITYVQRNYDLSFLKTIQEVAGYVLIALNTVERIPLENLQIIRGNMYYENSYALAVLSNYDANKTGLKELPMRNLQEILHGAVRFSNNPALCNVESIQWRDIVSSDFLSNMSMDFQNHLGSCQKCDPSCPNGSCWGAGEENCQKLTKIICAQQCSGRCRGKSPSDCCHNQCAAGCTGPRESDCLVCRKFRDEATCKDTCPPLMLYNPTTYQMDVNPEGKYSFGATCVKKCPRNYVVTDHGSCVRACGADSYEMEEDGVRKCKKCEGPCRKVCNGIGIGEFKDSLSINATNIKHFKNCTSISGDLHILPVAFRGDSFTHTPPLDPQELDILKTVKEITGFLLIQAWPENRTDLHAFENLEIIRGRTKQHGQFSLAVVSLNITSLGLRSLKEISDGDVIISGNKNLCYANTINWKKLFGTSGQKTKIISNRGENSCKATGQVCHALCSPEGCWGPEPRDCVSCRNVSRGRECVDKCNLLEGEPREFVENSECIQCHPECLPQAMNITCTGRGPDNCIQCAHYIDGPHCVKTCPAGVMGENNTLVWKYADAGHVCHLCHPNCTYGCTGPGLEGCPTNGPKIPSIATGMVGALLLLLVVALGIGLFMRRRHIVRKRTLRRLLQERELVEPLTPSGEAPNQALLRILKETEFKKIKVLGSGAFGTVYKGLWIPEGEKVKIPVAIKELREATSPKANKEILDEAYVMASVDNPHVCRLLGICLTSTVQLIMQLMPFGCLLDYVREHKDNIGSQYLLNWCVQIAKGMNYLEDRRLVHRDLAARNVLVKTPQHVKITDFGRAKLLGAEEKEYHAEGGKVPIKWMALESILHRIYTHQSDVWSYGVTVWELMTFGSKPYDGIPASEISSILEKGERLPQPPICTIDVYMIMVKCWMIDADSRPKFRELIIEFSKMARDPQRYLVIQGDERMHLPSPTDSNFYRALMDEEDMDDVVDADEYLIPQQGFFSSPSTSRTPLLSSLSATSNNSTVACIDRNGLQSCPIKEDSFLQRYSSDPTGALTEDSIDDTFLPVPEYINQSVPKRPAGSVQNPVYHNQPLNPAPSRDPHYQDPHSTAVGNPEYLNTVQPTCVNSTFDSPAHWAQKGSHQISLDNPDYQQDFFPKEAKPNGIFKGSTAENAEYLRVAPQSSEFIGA
Chain of EGFR (D770_N771insNPG) (P00533 other isoform, or with tags, fused parts or gaps del 1-668/ins NPG behind 770 limits assumed): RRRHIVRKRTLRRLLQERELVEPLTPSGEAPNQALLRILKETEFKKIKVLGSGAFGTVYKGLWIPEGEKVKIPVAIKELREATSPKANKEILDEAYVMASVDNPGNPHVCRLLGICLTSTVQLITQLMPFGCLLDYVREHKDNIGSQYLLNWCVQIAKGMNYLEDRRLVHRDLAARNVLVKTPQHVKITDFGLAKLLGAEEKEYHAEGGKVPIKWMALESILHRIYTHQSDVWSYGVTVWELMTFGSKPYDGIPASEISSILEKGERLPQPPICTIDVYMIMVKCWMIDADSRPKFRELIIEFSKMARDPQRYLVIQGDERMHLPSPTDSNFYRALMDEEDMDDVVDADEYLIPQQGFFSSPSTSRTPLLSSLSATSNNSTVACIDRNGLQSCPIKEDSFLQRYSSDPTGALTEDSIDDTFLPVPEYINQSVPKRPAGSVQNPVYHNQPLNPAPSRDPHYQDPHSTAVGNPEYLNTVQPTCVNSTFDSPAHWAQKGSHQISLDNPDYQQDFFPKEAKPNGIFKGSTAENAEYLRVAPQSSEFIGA
Chain of EGFR Δ746-750 mutant (P00533 other isoform, or with tags, fused parts or gaps del 1-668/del 746-750 limits assumed): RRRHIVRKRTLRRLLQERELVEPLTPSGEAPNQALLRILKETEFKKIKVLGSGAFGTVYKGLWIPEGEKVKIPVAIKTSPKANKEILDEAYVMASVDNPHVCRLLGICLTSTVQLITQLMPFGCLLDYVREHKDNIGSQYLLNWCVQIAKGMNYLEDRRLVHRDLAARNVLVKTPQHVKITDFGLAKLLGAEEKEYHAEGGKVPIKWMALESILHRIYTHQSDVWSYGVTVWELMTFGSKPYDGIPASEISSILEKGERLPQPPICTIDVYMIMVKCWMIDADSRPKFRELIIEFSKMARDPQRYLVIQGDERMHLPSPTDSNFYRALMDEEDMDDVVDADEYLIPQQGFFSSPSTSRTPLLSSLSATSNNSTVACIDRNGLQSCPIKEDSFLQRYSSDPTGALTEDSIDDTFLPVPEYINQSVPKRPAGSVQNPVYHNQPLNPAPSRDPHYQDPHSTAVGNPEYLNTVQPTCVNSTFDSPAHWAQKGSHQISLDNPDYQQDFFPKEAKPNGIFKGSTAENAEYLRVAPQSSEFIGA
Chain of EGFR L858R mutant (P00533 25-1210 L858R): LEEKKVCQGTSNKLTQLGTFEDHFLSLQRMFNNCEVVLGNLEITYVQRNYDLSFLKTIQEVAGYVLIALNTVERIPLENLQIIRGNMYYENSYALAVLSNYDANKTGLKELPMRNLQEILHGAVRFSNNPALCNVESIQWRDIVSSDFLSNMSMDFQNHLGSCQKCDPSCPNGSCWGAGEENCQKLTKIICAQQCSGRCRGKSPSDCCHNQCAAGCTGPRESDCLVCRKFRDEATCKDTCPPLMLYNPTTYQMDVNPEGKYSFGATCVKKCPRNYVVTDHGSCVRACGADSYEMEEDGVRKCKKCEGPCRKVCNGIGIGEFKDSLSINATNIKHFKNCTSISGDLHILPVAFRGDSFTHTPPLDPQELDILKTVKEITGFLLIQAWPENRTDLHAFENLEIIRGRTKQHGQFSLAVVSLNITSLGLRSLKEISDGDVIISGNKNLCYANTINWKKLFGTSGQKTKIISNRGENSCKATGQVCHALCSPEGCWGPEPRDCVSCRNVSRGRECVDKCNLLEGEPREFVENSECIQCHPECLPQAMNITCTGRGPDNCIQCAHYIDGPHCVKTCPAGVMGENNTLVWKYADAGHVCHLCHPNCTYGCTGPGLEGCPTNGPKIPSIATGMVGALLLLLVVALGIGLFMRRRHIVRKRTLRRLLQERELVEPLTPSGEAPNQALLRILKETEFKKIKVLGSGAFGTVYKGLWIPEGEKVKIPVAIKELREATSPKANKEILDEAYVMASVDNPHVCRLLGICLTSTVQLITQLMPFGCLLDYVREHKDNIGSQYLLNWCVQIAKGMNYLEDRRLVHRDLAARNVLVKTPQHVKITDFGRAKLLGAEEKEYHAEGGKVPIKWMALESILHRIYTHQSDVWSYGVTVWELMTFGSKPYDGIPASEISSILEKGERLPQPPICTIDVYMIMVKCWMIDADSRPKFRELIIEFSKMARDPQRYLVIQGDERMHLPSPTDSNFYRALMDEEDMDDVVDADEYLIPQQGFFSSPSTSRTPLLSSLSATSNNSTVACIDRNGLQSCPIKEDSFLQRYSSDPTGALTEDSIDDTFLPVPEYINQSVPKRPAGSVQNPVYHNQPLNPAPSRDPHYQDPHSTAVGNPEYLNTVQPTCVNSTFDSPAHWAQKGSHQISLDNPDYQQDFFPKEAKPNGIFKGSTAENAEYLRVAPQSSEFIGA

SMILES	IC50 [1]	IC50 [2]	IC50 [3]	IC50 [4]	IC50 [5]	IC50 [6]	IC50 [7]
Cc1nn([C@H]2CN(C)C[C@@H]2O)c2c1/C=C/c1n[nH]c3ccc(cc13)-c1cnn(C)c1OCCCO2 (racemic) [Example 75, (rac)-4-[(17E)-8,16-dimethyl-2,8,11,12-tetrahydro-10H,14H-3,5-etheno[1,5]dioxacyclopentadecino[10,11-c:15,14-c′:6,7-c″]tripyrazol-14-yl]-1-methylpyrrolidin-3-ol]	0.295 µM	0.0843 µM	0.0597 µM	0.0285 µM	0.0559 µM	0.0175 µM	0.0212 µM
Cc1c2c(nn1[C@H]1C[C@@H](N(C)CCN(C)C)C1)OCCCOc1c(cnn1C)-c1ccc3[nH]nc(c3c1)/C=C/2 [Example 102, N^1—{(1s,3s)-3-[(17E)-8,16-dimethyl-2,8,11,12-tetrahydro-10H,15H-3,5-etheno[1,5]dioxacyclopentadecino[10,11-c:15,14-c′:6,7-c′]tripyrazol-15-yl]cyclobutyl}-N^1,N—,N^2-trimethylethane-1,2-diamine]	0.0624 µM	0.0945 µM	0.0481 µM	0.0447 µM	0.0254 µM	0.0041 µM	0.0131 µM
Cc1c2c(nn1[C@H]1CCOC[C@@H]1O)OCCCOc1c(cnn1C)-c1ccc3[nH]nc(c3c1)/C=C/2 (racemic) [Example 87, (rac)-1,5-anhydro-2,3-dideoxy-3-[(17E)-8,16-dimethyl-2,8,11,12-tetrahydro-10H,15H-3,5-etheno[1,5]dioxacyclopentadecino[10,11-c:15,14-c′:6,7-c″ ]tripyrazol-15-yl]-L-threo-pentitol]	> 1 µM	> 1 µM	> 1 µM	> 1 µM	> 1 µM	> 1 µM	> 1 µM
Cc1nn(CCN2CCCC2)c2c1/C=C/c1n[nH]c3ccc(cc13)-c1cnn(C)c1C(C)OCCO2 (stereo not shown) [Example 100, (17E)-8,9,16-trimethyl-14-[2-(pyrrolidin-1-yl)ethyl]-2,8,9,11,12,14-hexahydro-3,5-etheno[1,4]dioxacyclopentadecino[11,10-c:15,14-c′:6,7-c″]tripyrazole]	0.29 µM	0.25 µM	0.198 µM	0.091 µM	0.0877 µM	0.0104 µM	0.0192 µM

Results, then the compound that gave them:

IC50 [1]	IC50 [2]	IC50 [3]	IC50 [4]	IC50 [5]	IC50 [6]	IC50 [7]	SMILES
0.0111 µM	0.0256 µM	0.00282 µM	0.00085 µM	0.00181 µM	0.00015 µM	0.00043 µM	Cc1nn(C[C@@H](C)O)c2c1/C=C/c1n[nH]c3ccc(cc13)-c1cnn(C)c1O[C@@H](C)CN(C)C2 [Example 127, (2R)-1-[(10S,17E)-8,10,12,16-tetramethyl-2,8,10,11,12,13-hexahydro-14H-3,5-ethenotripyrazolo[3,4-f:3′,4′-j:4″,3″-n][1,4]oxazacyclopentadecin-14-yl]propan-2-ol]
0.372 µM	0.403 µM	0.035 µM	0.0236 µM	0.0424 µM	0.00425 µM	0.00277 µM	C[C@H]1CN(C)Cc2c(c(O)nn2C)/C=C/c2n[nH]c3ccc(cc23)-c2cnn(C)c2O1 [Example 148, (10S,17E)-8,10,12,14-tetramethyl-2,10,11,12,13,14-hexahydro-8H-3,5-ethenotripyrazolo[3,4-f:3′,4′-j:4″,3″-n][1,4]oxazacyclopentadecin-16-ol]
0.107 µM	0.111 µM	0.0576 µM	0.0685 µM	0.0348 µM	0.00249 µM	0.0108 µM	Cc1nn(C)c2c1/C=C/c1n[nH]c3ccc(cc13)-c1cnn(C)c1CN(C)[C@@H](C)CO2 [Example 106, (11S,17E)-8,10,11,14,16-pentamethyl-2,9,10,11,12,14-hexahydro-8H-3,5-ethenotripyrazolo[3,4-f:4′,3′-j:4″,3″-n][1,4]oxazacyclopentadecine]
